Converted amounts (≈) assume the structure as drawn.
Columns and labels:
Type in all cases: functional
[1] = tested on: Staphylococcus haemolyticus; assay: Antimicrobial activity against Staphylococcus haemolyticus clinical isolates by broth microdilution method
Enterococcus faecium [2] = assay: Antimicrobial activity against vancomycin-susceptible Enterococcus faecium clinical isolates by broth microdilution method
[3] = tested on: Staphylococcus epidermidis; assay: Antimicrobial activity against oxacillin-resistant Staphylococcus epidermidis clinical isolates by broth microdilution method
[4] = tested on: Staphylococcus haemolyticus; assay: Antimicrobial activity against Staphylococcus haemolyticus clinical isolates assessed as percent susceptible isolates by broth microdilution method
Staphylococcus aureus [5] = assay: Antimicrobial activity against oxacillin-susceptible Staphylococcus aureus clinical isolates assessed as percent susceptible isolates by broth microdilution method
Staphylococcus aureus [6] = assay: Antimicrobial activity against oxacillin-susceptible Staphylococcus aureus clinical isolates by broth microdilution method
Enterococcus faecium [7] = assay: Antimicrobial activity against Enterococcus faecium clinical isolates assessed as percent susceptible isolates by broth microdilution method
Enterococcus faecium [8] = assay: Antimicrobial activity against Enterococcus faecium expressing VanB gene clinical isolates assessed as percent susceptible isolates by broth microdilution method
[9] = tested on: Staphylococcus epidermidis; assay: Antimicrobial activity against Staphylococcus epidermidis clinical isolates by broth microdilution method
Enterococcus faecium [10] = assay: Antimicrobial activity against vancomycin-nonsusceptible Enterococcus faecium clinical isolates by broth microdilution method
[11] = tested on: Staphylococcus epidermidis; assay: Antimicrobial activity against oxacillin-susceptible Staphylococcus epidermidis clinical isolates by broth microdilution method
Enterococcus faecium [12] = assay: Antimicrobial activity against vancomycin-nonsusceptible Enterococcus faecium clinical isolates assessed as percent susceptible isolates by broth microdilution method
[13] = tested on: Staphylococcus epidermidis; assay: Antimicrobial activity against Staphylococcus epidermidis clinical isolates assessed as percent susceptible isolates by broth microdilution method
[14] = tested on: Staphylococcus epidermidis; assay: Antimicrobial activity against oxacillin-susceptible Staphylococcus epidermidis clinical isolates assessed as percent susceptible isolates by broth microdilution method
Enterococcus faecalis [15] = assay: Antimicrobial activity against vancomycin-susceptible Enterococcus faecalis clinical isolates by broth microdilution method
[16] = tested on: Staphylococcus haemolyticus; assay: Antimicrobial activity against oxacillin-resistant Staphylococcus haemolyticus clinical isolates by broth microdilution method
Enterococcus faecalis [17] = assay: Antimicrobial activity against Enterococcus faecalis clinical isolates assessed as percent susceptible isolates by broth microdilution method
Enterococcus faecium [18] = assay: Antimicrobial activity against Enterococcus faecium expressing VanA gene clinical isolates assessed as percent susceptible isolates by broth microdilution method
Enterococcus faecalis [19] = assay: Antimicrobial activity against vancomycin-susceptible Enterococcus faecalis clinical isolates assessed as percent susceptible isolates by broth microdilution method
Enterococcus faecalis [20] = assay: Antimicrobial activity against Enterococcus faecalis clinical isolates by broth microdilution method
Enterococcus faecium [21] = assay: Antimicrobial activity against vancomycin-susceptible Enterococcus faecium clinical isolates assessed as percent susceptible isolates by broth microdilution method
Staphylococcus aureus [22] = assay: Antimicrobial activity against Staphylococcus aureus clinical isolates assessed as percent susceptible isolates by broth microdilution method
Enterococcus faecium [23] = assay: Antimicrobial activity against Enterococcus faecium expressing VanB gene clinical isolates by broth microdilution method
Staphylococcus aureus [24] = assay: Antimicrobial activity against Staphylococcus aureus clinical isolates by broth microdilution method
Staphylococcus aureus [25] = assay: Antimicrobial activity against oxacillin-resistant Staphylococcus aureus clinical isolates by broth microdilution method
Enterococcus faecium [26] = assay: Antimicrobial activity against Enterococcus faecium expressing VanA gene clinical isolates by broth microdilution method
Enterococcus faecalis [27] = assay: Antimicrobial activity against vancomycin-nonsusceptible Enterococcus faecalis clinical isolates assessed as percent susceptible isolates by broth microdilution method
Enterococcus faecalis [28] = assay: Antimicrobial activity against Enterococcus faecalis expressing VanA gene clinical isolates assessed as percent susceptible isolates by broth microdilution method
[29] = tested on: Staphylococcus haemolyticus; assay: Antimicrobial activity against oxacillin-susceptible Staphylococcus haemolyticus clinical isolates by broth microdilution method
[30] = tested on: Staphylococcus haemolyticus; assay: Antimicrobial activity against oxacillin-susceptible Staphylococcus haemolyticus clinical isolates assessed as percent susceptible isolates by broth microdilution method
Enterococcus faecium [31] = assay: Antimicrobial activity against Enterococcus faecium clinical isolates by broth microdilution method
Enterococcus faecalis [32] = assay: Antimicrobial activity against vancomycin-nonsusceptible Enterococcus faecalis clinical isolates by broth microdilution method
Enterococcus faecalis [33] = assay: Antimicrobial activity against Enterococcus faecalis expressing VanB gene clinical isolates assessed as percent susceptible isolates by broth microdilution method
Enterococcus faecalis [34] = assay: Antimicrobial activity against Enterococcus faecalis expressing VanB gene clinical isolates by broth microdilution method
Enterococcus faecalis [35] = assay: Antimicrobial activity against Enterococcus faecalis expressing VanA gene clinical isolates by broth microdilution method
[36] = tested on: Staphylococcus epidermidis; assay: Antimicrobial activity against oxacillin-resistant Staphylococcus epidermidis clinical isolates assessed as percent susceptible isolates by broth microdilution method

`CCCCCCCCCC(=O)N[C@@H](Cc1c[nH]c2ccccc12)C(=O)N[C@H](CC(N)=O)C(=O)N[C@@H](CC(=O)O)C(=O)N[C@@H]1C(=O)NCC(=O)N[C@@H](CCCN)C(=O)N[C@@H](CC(=O)O)C(=O)N[C@H](C)C(=O)N[C@@H](CC(=O)O)C(=O)NCC(=O)N[C@H](CO)C(=O)N[C@@H]([C@H](C)CC(=O)O)C(=O)N[C@@H](CC(=O)c2ccccc2N)C(=O)O[C@@H]1C` was tested, and the MIC90 [1] was 0.5 µg/mL (≈ 0.309 µM), the MIC90 (Enterococcus faecium [2]) was 4 µg/mL (≈ 2.47 µM) and the MIC90 [3] was 0.5 µg/mL (≈ 0.309 µM). For the same compound, the Activity [4] was 100%, the Activity (Staphylococcus aureus [5]) was 99.9% and the MIC90 (Staphylococcus aureus [6]) was 0.5 µg/mL (≈ 0.309 µM). For the same compound, the Activity (Enterococcus faecium [7]) was 98.4%, the Activity (Enterococcus faecium [8]) was 93.1% and the MIC90 [9] was 0.5 µg/mL (≈ 0.309 µM). It also gave an MIC90 (Enterococcus faecium [10]) of 4 µg/mL (≈ 2.47 µM), an MIC90 [11] of 0.5 µg/mL (≈ 0.309 µM) and an Activity (Enterococcus faecium [12]) of 98.5%. The Activity [13] was 99.9%, the Activity [14] was 100% and the MIC90 (Enterococcus faecalis [15]) was 2 µg/mL (≈ 1.23 µM). It also gave an MIC90 [16] of 0.5 µg/mL (≈ 0.309 µM), an Activity (Enterococcus faecalis [17]) of 99.9% and an Activity (Enterococcus faecium [18]) of 98.8%. It also gave an Activity (Enterococcus faecalis [19]) of 99.9%, an MIC90 (Enterococcus faecalis [20]) of 2 µg/mL (≈ 1.23 µM) and an Activity (Enterococcus faecium [21]) of 98.3%. The Activity (Staphylococcus aureus [22]) was 99.9%, the MIC90 (Enterococcus faecium [23]) was 4 µg/mL (≈ 2.47 µM) and the MIC90 (Staphylococcus aureus [24]) was 0.5 µg/mL (≈ 0.309 µM). The MIC90 (Staphylococcus aureus [25]) was 0.5 µg/mL (≈ 0.309 µM), the MIC90 (Enterococcus faecium [26]) was 4 µg/mL (≈ 2.47 µM) and the Activity (Enterococcus faecalis [27]) was 98.9%. The Activity (Enterococcus faecalis [28]) was 98.5%, the MIC90 [29] was 0.5 µg/mL (≈ 0.309 µM) and the Activity [30] was 100%. The MIC90 (Enterococcus faecium [31]) was 4 µg/mL (≈ 2.47 µM), the MIC90 (Enterococcus faecalis [32]) was 2 µg/mL (≈ 1.23 µM) and the Activity (Enterococcus faecalis [33]) was 100%. The MIC90 (Enterococcus faecalis [34]) was 2 µg/mL (≈ 1.23 µM), the MIC90 (Enterococcus faecalis [35]) was 2 µg/mL (≈ 1.23 µM) and the Activity [36] was 99.8%.
